Where two headings read alike, the source gives them in different places.
Tests used:
[1] = test system: eIF2α phosphorylation (eIF2•GTP•Met-tRNAi ternary complex; HRI activation); test: surrogate dual luciferase eIF2α phosphorylation (ternary complex) assay; assay type: cell-based, human; conditions: for maximal fold induction: Homo sapiens, read-out: Emax (F/R)
Text: The dual luciferase expression vector and other plasmids used for these studies were previously described (see, for example, Ziegeler, G. et al. Journal of Biological Chemistry 2010, 285(20), 15408-19). The ternary complex assay, surrogate of eIF2α phosphorylation, has been described elsewhere (see, for example, Chen, T. et al. Nature Chemical Biology 2011, 7(9), 610-6). Briefly, the pBISA vector, which contains seven copies of the tetracycline-regulated transactivator response element (TRE), is flanked on both sides by minimal human cytomegalovirus (CMV) minimal promoters allowing bi-directional transcription and two MCSs (multiple cloning sites). Firefly and renilla luciferases were subcloned into MCS-I and MCS-II, respectively. This plasmid, designated pBISA-DL, transcribes two mRNAs that contain the 90 nucleotide plasmid derived 5′UTR (same sequence in both mRNAs), and the ORF encoding either firefly or renilla luciferase followed by a polyadenylation sequence. This plasmid was further modified by inserting the 5′UTR of ATF-4 mRNA into MCS-I in front of the firefly luciferase mRNA. Transcription from this unit generates an mRNA that contains the firefly luciferase ORF preceded by a 5′UTR composed of 90 nucleotides derived from the plasmid and 267 nucleotides derived from the 5′UTR of ATF-4 mRNA. Transcription from the other unit generates an mRNA that contains the renilla luciferase ORF proceeded only by the 90-nucleotide plasmid-derived sequence in the 5′UTR (pBISA-DL (ATF-4)) (see, for example, Chen, T. et al. Nature Chemical Biology 2011, 7(9), 610-6).
Cells expressing firefly and renilla luciferases were assayed with a dual glow luciferase assay kit, per manufacturer's instruction (Promega Inc., Madison, Wis.). The data calculations were carried out as the ratio of firefly to renilla luciferase signal.
A library of 1900 urea compounds was screened in the surrogate dual luciferase eIF2α phosphorylation (ternary complex) assay. This library was originally assembled and screened for inhibition of sEH by Hammock's group at UC-Davis (see, for example, Chen, T. et al. Nature Chem Biol 2011, 7, 610-616; Ziegeler, G et al. J Biol Chem 2010, 285, 15408-15419). We developed this assay in order to identify compounds that activate HRI, taking advantage of the fact that activated HRI phosphorylates eIF2α thereby reducing the amount of the eIF2•GTP•Met-tRNAi ternary complex that results in inhibition of translation of many mRNAs but paradoxically increases translation of some mRNAs that contain multiple upstream ORF (uORF) in their 5′ untranslated regions (UTRs). In our assay, firefly (F) luciferase mRNA is fused to 5′UTR of activating transcription factor 4 (ATF-4) mRNA that has multiple uORFs while renilla (R) luciferase mRNA is fused to a 5′UTR lacking any uORFs. Compounds that reduce the amount of the ternary complex, such as those activating HRI, would increase F luciferase expression while decreasing the R luciferase expression, resulting in an increased F/R luciferase ratio. To calculate the activity scores, the F/R ratios for every compound-treated wells were normalized to vehicle-treated (DMSO) wells that was arbitrarily set at 1 (F/R=1).

[2] = test system: CRL-2813 human melanoma cancer cells; test: cell proliferation (SRB) assay, CRL-2813; assay type: cell-based; conditions: read-out: IC50
Protocol: Cells were seeded in 96-well plates and maintained for 5 days in the presence of 0.5 to 20 μM of individual compound, and cell proliferation was measured by the sulforhodamine B (SRB) assay as described previously (see, for example, Palakurthi, S. S. et al. Cancer Research 2000, 60(11), 2919-2925). Briefly, at the end of a 5-day treatment, cells were fixed in 10% cold trichloroacetic acid. Cell number was estimated by measuring the remaining bound dye of sulforhodamine B after washing. The percentage of growth was calculated by using the equation: 100×[(T−T0)/(C−T0)], where T and C represent the absorbance in treated and control cultures at Day 5, and T0 at time zero, respectively. If T is less than T0, cell death has occurred and can be calculated from 100×[(T−T0)/T0].

[3] = ternary complex assay, F/R normalized to vehicle (DMSO = 1)
[4] = cell proliferation assay (SRB, 5 days), cell line not named in Table 1, values equal CRL-2813 values of Tables 5/8
[5] = Homo sapiens, CRL2813, 120 h, cell proliferation assay (SRB, 5 days), cell line not named in Table 1, values equal CRL-2813 values of Tables 5/8
[6] = Homo sapiens, CRL2813, cell proliferation assay, Table 3, cell line not named, values equal CRL-2813 values of Table 8
[7] = surrogate eIF2α phosphorylation assay, Table 3

| SMILES | Emax (F/R) [1, 3] | IC50 [2, 4] | other results |
| --- | --- | --- | --- |
| O=C(Nc1cccc(F)c1)NC1CCC(Oc2ccc(F)cc2)CC1 (stereo not drawn) [Compound I-1m] | 6.54 F/R | 8.3 ± 0.9 µM |  |
| O=C(Nc1ccccc1F)NC1CCC(Oc2ccc(F)cc2)CC1 (stereo not drawn) [Compound I-1o] | 2.10 F/R | 17.5 ± 1.1 µM |  |
| O=C(Nc1ccc(F)cc1)NC1CCC(Oc2ccc(F)cc2)CC1 (stereo not drawn) [Compound I-1p] | 0.98 F/R | 20 ± 2.1 µM |  |
| O=C(Nc1cccc(Cl)c1)NC1CCC(Oc2ccc(F)cc2)CC1 (stereo not drawn) [Compound I-2m] | 8.76 F/R | 5.9 ± 0.6 µM |  |
| O=C(Nc1ccccc1Cl)NC1CCC(Oc2ccc(F)cc2)CC1 (stereo not drawn) [Compound I-2o] | 5.37 F/R | 9.1 ± 1 µM |  |
| O=C(Nc1ccc(Cl)cc1)NC1CCC(Oc2ccc(F)cc2)CC1 (stereo not drawn) [Compound I-2p] | 1.65 F/R | > 20 µM |  |
| O=C(Nc1cccc(Br)c1)NC1CCC(Oc2ccc(F)cc2)CC1 (stereo not drawn) [Compound I-3m] | 9.52 F/R | 6.2 ± 0.3 µM |  |
| O=C(Nc1ccccc1Br)NC1CCC(Oc2ccc(F)cc2)CC1 (stereo not drawn) [Compound I-3o] | 5.23 F/R | 7.7 ± 0.1 µM |  |
| O=C(Nc1ccc(Br)cc1)NC1CCC(Oc2ccc(F)cc2)CC1 (stereo not drawn) [Compound I-3p] | 1.29 F/R | > 20 µM |  |
| O=C(Nc1cccc(I)c1)NC1CCC(Oc2ccc(F)cc2)CC1 (stereo not drawn) [Compound I-4m] | 10.32 F/R | 5.2 ± 0.2 µM |  |
| O=C(Nc1ccccc1I)NC1CCC(Oc2ccc(F)cc2)CC1 (stereo not drawn) [Compound I-4o] | 3.25 F/R | > 20 µM |  |
| O=C(Nc1ccc(I)cc1)NC1CCC(Oc2ccc(F)cc2)CC1 (stereo not drawn) [Compound I-4p] | 3.77 F/R | 10.2 ± 1.5 µM |  |
| O=C(Nc1cccc(C(F)(F)F)c1)NC1CCC(Oc2ccc(F)cc2)CC1 (stereo not drawn) [Compound I-5m] |  |  | maximal fold induction [1, 3]: 11.8; IC50 [2, 5]: 2.6 ± 0.3 µM; IC50 [2, 6]: 2.6 ± 0.6 µM |
| O=C(Nc1ccccc1C(F)(F)F)NC1CCC(Oc2ccc(F)cc2)CC1 (stereo not drawn) [Compound I-5o] | 1.56 F/R | > 20 µM |  |
| O=C(Nc1ccc(C(F)(F)F)cc1)NC1CCC(Oc2ccc(F)cc2)CC1 (stereo not drawn) [Compound I-5p] | 13.99 F/R | 2.8 ± 0.1 µM |  |
| O=C(Nc1ccccc1OC(F)(F)F)NC1CCC(Oc2ccc(F)cc2)CC1 (stereo not drawn) [Compound I-6o] | 1.41 F/R | > 20 µM |  |
| Cc1cccc(NC(=O)NC2CCC(Oc3ccc(F)cc3)CC2)c1 (stereo not drawn) [Compound I-7m] | 4.73 F/R | 14.4 ± 0.5 µM |  |
| Cc1ccccc1NC(=O)NC1CCC(Oc2ccc(F)cc2)CC1 (stereo not drawn) [Compound I-7o] | 0.98 F/R | > 20 µM |  |
| Cc1ccc(NC(=O)NC2CCC(Oc3ccc(F)cc3)CC2)cc1 (stereo not drawn) [Compound I-7p] | 1.05 F/R | > 20 µM |  |

| SMILES | Emax (F/R) [1, 3] | IC50 [2, 4] | other results |
| --- | --- | --- | --- |
| COc1cccc(NC(=O)NC2CCC(Oc3ccc(F)cc3)CC2)c1 (stereo not drawn) [Compound I-8m] | 3.81 F/R | 14 ± 1.3 µM |  |
| COc1ccccc1NC(=O)NC1CCC(Oc2ccc(F)cc2)CC1 (stereo not drawn) [Compound I-8o] | 1.51 F/R | > 20 µM |  |
| COc1ccc(NC(=O)NC2CCC(Oc3ccc(F)cc3)CC2)cc1 (stereo not drawn) [Compound I-8p] | 0.83 F/R | > 20 µM |  |
| O=C(Nc1cccc([N+](=O)[O-])c1)NC1CCC(Oc2ccc(F)cc2)CC1 (stereo not drawn) [Compound I-9m] | 7.47 F/R | 6.7 ± 0.7 µM |  |
| O=C(Nc1ccccc1[N+](=O)[O-])NC1CCC(Oc2ccc(F)cc2)CC1 (stereo not drawn) [Compound I-9o] | 2.23 F/R | 3.5 ± 0.3 µM |  |
| O=C(Nc1ccc([N+](=O)[O-])cc1)NC1CCC(Oc2ccc(F)cc2)CC1 (stereo not drawn) [Compound I-9p] | 9.00 F/R | 2.3 ± 0.1 µM |  |
| CSc1cccc(NC(=O)NC2CCC(Oc3ccc(F)cc3)CC2)c1 (stereo not drawn) [Compound I-10m] | 6.67 F/R | 11.1 ± 1.1 µM |  |
| CSc1ccccc1NC(=O)NC1CCC(Oc2ccc(F)cc2)CC1 (stereo not drawn) [Compound I-10o] | 0.92 F/R | > 20 µM |  |
| CSc1ccc(NC(=O)NC2CCC(Oc3ccc(F)cc3)CC2)cc1 (stereo not drawn) [Compound I-10p] | 1.07 F/R | > 20 µM |  |
| COC(=O)c1cccc(NC(=O)NC2CCC(Oc3ccc(F)cc3)CC2)c1 (stereo not drawn) [Compound I-11m] | 6.83 F/R | 9.2 ± 0.8 µM |  |
| COC(=O)c1ccccc1NC(=O)NC1CCC(Oc2ccc(F)cc2)CC1 (stereo not drawn) [Compound I-11o, methyl 2-(3-(4-(4-fluorophenoxy)cyclohexyl)ureido)benzoate] |  |  | maximal fold induction [1, 3]: 3.79; IC50 [2, 5]: 14.5 ± 1.6 µM |
| COC(=O)c1ccc(NC(=O)NC2CCC(Oc3ccc(F)cc3)CC2)cc1 (stereo not drawn) [Compound I-11p] | 3.97 F/R | 11.6 µM |  |
| O=C(Nc1cccc(C(=O)O)c1)NC1CCC(Oc2ccc(F)cc2)CC1 (stereo not drawn) [Compound I-12m] | 0.88 F/R | > 20 µM |  |
| O=C(Nc1ccccc1C(=O)O)NC1CCC(Oc2ccc(F)cc2)CC1 (stereo not drawn) [Compound I-12o, 2-(3-(4-(4-fluorophenoxy)cyclohexyl)ureido)benzoic acid] |  |  | maximal fold induction [1, 3]: 1.2; IC50 [2, 5]: > 20 µM |
| O=C(Nc1ccc(C(=O)O)cc1)NC1CCC(Oc2ccc(F)cc2)CC1 (stereo not drawn) [Compound I-12p] | 3.49 F/R | 11.6 ± 1.8 µM |  |
| O=C(Nc1ccccc1)NC1CCC(Oc2ccc(F)cc2)CC1 (stereo not drawn) [Compound I-13] | 1.65 F/R | 20 ± 2 µM |  |
| O=C(Nc1cccc(C(F)(F)F)c1)NC1CCC(Oc2ccc(Cl)cc2)CC1 (stereo not drawn) [Compound I-16, 1-(4-(4-Chlorophenoxy)cyclohexyl)-3-(3-(trifluoromethyl)phenyl)urea] |  |  | maximal fold induction [1, 7]: 6.73; IC50 [2, 6]: 2 ± 0.1 µM |
| O=C(Nc1cccc(C(F)(F)F)c1)NC1CCC(Oc2ccccc2C(F)(F)F)CC1 (stereo not drawn) [Compound I-19, 1-(4-(2-(Trifluoromethyl)phenoxy)cyclohexyl)-3-(3-(trifluoromethyl)phenyl)urea] |  |  | maximal fold induction [1, 7]: 15.7; IC50 [2, 6]: 1.4 ± 0.3 µM |

— patent publication US20160318856A1, “Substituted Urea eIF2alpha Kinase Activators” (THE BRIGHAM AND WOMEN'S HOSPITAL, INC., priority 2013, published 2016)
